Among the data in patent publication US20220257774A1, “AROMATIC AMINE AR AHD BET TARGETING PROTEIN DEGRADATION CHIMERA COMPOUND AND USE” (HINOVA PHARMACEUTICALS INC., priority 2019, published 2022) are IC50 values, retold here.

One experiment relates to 22RV1 cells. The experiment is described as follows: Inhibition of the proliferation of drug-resistant prostate cancer cell 22RV1 (CCK-8). The class given is cell-based. The settings on record: 22RV1 cells (enzalutamide-resistant), same method. The method in brief:
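22RV1 cells, 1000/well in RPMI1640 with 10% FBS, treated in duplicate with 9-point 3-fold dilutions from 10 μM (0.1% DMSO final). After 6 days at 37 °C, CCK-8 added for 1 h and OD450 read. IC50 from dose-response inhibition fit.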

The test system of the next experiment is LNCaP/AR cells. The experiment is described as follows: Inhibition of the proliferation of LNCap/AR cells (CCK-8). It is filed as cell-based. The settings on record: read-out: LNCap/AR IC50. The method in brief: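 LNCaP/AR cells (1000/well, RPMI1640 + 10% FBS) were treated for 6 days at 37 °C with 9-point 3-fold dilutions from 10 μM final, 0.1% DMSO, in duplicate. Viability was read by CCK-8 absorbance at 450 nm after 1 h, and IC50 came from a dose-response-inhibition fit.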

The mark [1] stands for this setting: LNCaP/AR cells, 6 days culture, CCK-8.
[2] abbreviates: 144 h, LNCaP/AR cells, 6 days culture, CCK-8.

Each structure is given as a SMILES string. Read-outs that look alike come from different tables or passages of the source.

As for `Cc1ccc(-c2c(C)noc2C)cc1N(CC1CCC(Nc2cc3c(cc2F)CN(C2CCC(=O)NC2=O)C3=O)CC1)c1ccc(C2(C#N)CC2)cc1` (stereo not shown) [Compound 162, 1-(4-((5-(3,5-Dimethylisoxazol-4-yl)-2-methylphenyl)(((1s,4s)-4-((2-(2,6-dioxopiperidin-3)-6-fluoro-3-isoindolinone-5-yl)amino)cyclohexyl)methyl)amino)phenyl)phenylcyclopropanecarbonitrile], the IC50 in the experiment on 22RV1 cells was over 2000 nM; in the experiment on LNCaP/AR cells (setting [1]), 101 to 500 nM.

`Cc1ccc(-c2c(C)noc2C)cc1N(CC1CCC(Nc2cc3c(cc2F)C(=O)N(C2CCC(=O)NC2=O)C3)CC1)c1ccc(C2(C#N)CC2)cc1` (stereo not shown) [Compound 163, 1-(4-((5-(3,5-Dimethylisoxazol-4-yl)-2-methylphenyl)(((1s,4s)-4-((2-(2,6-dioxopiperidin-3)-6-fluoro-1-isoindolinone-5-yl)amino)cyclohexyl)methyl)amino)phenyl)phenylcyclopropanecarbonitrile]: the IC50 is over 2000 nM in the experiment with 22RV1 cells and under 100 nM in the experiment on LNCaP/AR cells (setting [1]).

For the compound `Cc1ccc(-c2c(C)noc2C)cc1N(CCCCNc1cc2c(cc1F)C(=O)N(C1CCC(=O)NC1=O)C2=O)c1ccc(C#N)c(Cl)c1` (stereo not shown) [Compound 164, 2-Chloro-4-((5-(3,5-dimethylisoxazol-4-yl)-2-methylphenyl)(4-((2-(2,6-dioxopiperidin-3)-6-fluoro-1,3-dioxyisoindolin-5-yl)amino)butyl)amino)benzonitrile], the IC50 was over 2000 nM in the experiment with 22RV1 cells (Homo sapiens) and 501 to 2000 nM with LNCaP/AR cells (LNCaP/AR, 144 h).

As to `Cc1ccc(-c2c(C)noc2C)cc1N(CCCCNc1cc2c(cc1F)CN(C1CCC(=O)NC1=O)C2=O)c1ccc(C#N)c(Cl)c1` (stereo not shown) [Compound 166, 2-Chloro-4-((5-(3,5-dimethylisoxazol-4-yl)-2-methylphenyl)(4-((2-(2,6-dioxopiperidin-3)-6-fluoro-3-isoindolinone-5-yl)amino)butyl)amino)benzonitrile], the IC50 in the experiment with 22RV1 cells (Homo sapiens) was under 100 nM; with LNCaP/AR cells (LNCaP/AR, 144 h) it was 101 to 500 nM.

In the case of `Cc1ccc(-c2c(C)noc2C)cc1N(CCCCNc1cc2c(cc1F)C(=O)N(C1CCC(=O)NC1=O)C2)c1ccc(C#N)c(Cl)c1` (stereo not shown) [Compound 167, 2-Chloro-4-((5-(3,5-dimethylisoxazol-4-yl)-2-methylphenyl)(4-((2-(2,6-dioxopiperidin-3)-6-fluoro-1-isoindolinone-5-yl)amino)butyl)amino)benzonitrile], the IC50 is over 2000 nM in the experiment on 22RV1 cells (Homo sapiens) and 501 to 2000 nM in the experiment on LNCaP/AR cells (LNCaP/AR, 144 h).

Regarding `Cc1ccc(-c2c(C)noc2C)cc1N(c1ccc(C2(C#N)CC2)cc1)C1CC2(C1)CN(c1cc3c(cc1F)C(=O)N(C1CCC(=O)NC1=O)C3=O)C2` (stereo not shown) [Compound 170], the IC50 in the experiment with 22RV1 cells (Homo sapiens) and in the experiment with LNCaP/AR cells (setting [2]) was over 2000 nM in each case.

Take `Cc1ccc(-c2c(C)noc2C)cc1N(CCCNc1cc2c(cc1F)C(=O)N(C1CCC(=O)NC1=O)C2=O)c1ccc(C2(C#N)CC2)cc1` (stereo not shown) [Compound 171, 1-(4-((5-(3,5-Dimethylisoxazol-4-yl)-2-methylphenyl)(3-((2-(2,6-dioxopiperidin-3-yl)-6-fluoro-1,3-dioxoidindolin-5-yl)amino)propyl)amino)phenyl)cyclopropane-1-nitrile]: the IC50 in the experiment on 22RV1 cells and with LNCaP/AR cells (setting [1]) was over 2000 nM throughout.

As to `Cc1ccc(-c2c(C)noc2C)cc1N(CC(C)OC1CN(c2cc3c(cc2F)C(=O)N(C2CCC(=O)NC2=O)C3=O)C1)c1ccc(C2(C#N)CC2)cc1` (stereo not shown) [Compound 173, 1-(4-((5-(3,5-dimethylisoxazol-4-yl)-2-methylphenyl)(2-((1-(2-(2,6-dioxopiperidin-3-yl)-6-fluoro-1,3-dioxoisoindolin-5-yl)azacyclobutane-3-yl)oxy)propyl)amino)phenyl)cyclopropane-1-nitrile], the IC50 in the experiment with 22RV1 cells (Homo sapiens) lay within 101 to 500 nM; in the experiment with LNCaP/AR cells (setting [2]), 501 to 2000 nM.

Take `Cc1ccc(-c2c(C)noc2C)cc1N(CCCNc1cc2c(cc1F)CN(C1CCC(=O)NC1=O)C2=O)c1ccc(C2(C#N)CC2)cc1` (stereo not shown) [Compound 175, 1-(4-((5-(3,5-dimethylisoxazol-4-yl)-2-methylphenyl)(3-((2-(2,6-dioxopiperidin-3-yl)-6-fluoro-3-oxoisoindolin-5-yl)amino)propyl)amino)phenyl)cyclopropane-1-nitrile]: the IC50 in the experiment on 22RV1 cells (Homo sapiens) was over 2000 nM; in the experiment on LNCaP/AR cells (setting [2]) it was 501 to 2000 nM.

Consider `Cc1ccc(-c2c(C)noc2C)cc1N(CCCNc1cc2c(cc1F)C(=O)N(C1CCC(=O)NC1=O)C2)c1ccc(C2(C#N)CC2)cc1` (stereo not shown) [Compound 176, 1-(4-((5-(3,5-dimethylisoxazol-4-yl)-2-methylphenyl)(3-((2-(2,6-dioxopiperidin-3-yl)-6-fluoro-1-oxoisoindolin-5-yl)amino)propyl)amino)phenyl)cyclopropane-1-nitrile], for which the figures for the IC50 with 22RV1 cells (Homo sapiens) and in the experiment with LNCaP/AR cells (setting [2]) were over 2000 nM and under 100 nM, respectively.

With `Cc1ccc(-c2c(C)noc2C)cc1N(CC(C)OC1CN(c2cc3c(cc2F)CN(C2CCC(=O)NC2=O)C3=O)C1)c1ccc(C2(C#N)CC2)cc1` (stereo not shown) [Compound 177], the values for the IC50 in the experiment on 22RV1 cells and in the experiment on LNCaP/AR cells (setting [1]) were over 2000 nM and under 100 nM, respectively.

For the compound `Cc1ccc(-c2c(C)noc2C)cc1N(CC(C)OC1CN(c2ccc3c(c2)C(=O)N(C2CCC(=O)NC2=O)C3)C1)c1ccc(C2(C#N)CC2)cc1` (stereo not shown) [Compound 179, 1-(4-((5-(3,5-Dimethylisoxazol-4-yl)-2-methylphenyl)(2-((1-(2-(2,6-dioxopiperidin-3-yl)-3-oxoisoindolin-5-yl)azacyclobutane-3-yl)oxy)propyl)amino)phenyl)cyclopropane-1-nitrile], the IC50 in the experiment with 22RV1 cells (Homo sapiens) and in the experiment on LNCaP/AR cells (setting [2]) was over 2000 nM throughout.

In the case of `Cc1ccc(-c2c(C)noc2C)cc1N(C[C@H]1C[C@@H]1CNc1cc2c(cc1F)C(=O)N(C1CCC(=O)NC1=O)C2=O)c1ccc(C2(C#N)CC2)cc1` (stereo partly shown) [Compound 181], the IC50 is 101 to 500 nM with 22RV1 cells (Homo sapiens) and over 2000 nM in the experiment on LNCaP/AR cells (setting [2]).

For the compound `Cc1ccc(-c2c(C)noc2C)cc1N(C[C@H]1C[C@@H]1CNc1ccc2c(c1)C(=O)N(C1CCC(=O)NC1=O)C2=O)c1ccc(C2(C#N)CC2)cc1` (stereo partly shown) [Compound 182], the IC50 is 101 to 500 nM with 22RV1 cells (Homo sapiens) and over 2000 nM with LNCaP/AR cells (setting [2]).

On to `Cc1ccc(-c2c(C)noc2C)cc1N(C[C@H]1C[C@@H]1CNc1cc2c(cc1F)CN(C1CCC(=O)NC1=O)C2=O)c1ccc(C2(C#N)CC2)cc1` (stereo partly shown) [Compound 184], for which the IC50 in the experiment with 22RV1 cells (Homo sapiens) and with LNCaP/AR cells (setting [2]) was over 2000 nM throughout.

In the case of `Cc1ccc(-c2c(C)noc2C)cc1N(C[C@H]1C[C@@H]1CNc1cc2c(cc1F)C(=O)N(C1CCC(=O)NC1=O)C2)c1ccc(C2(C#N)CC2)cc1` (stereo partly shown) [Compound 185], the IC50 in the experiment with 22RV1 cells (Homo sapiens) and with LNCaP/AR cells (setting [2]) was over 2000 nM in each case.

Consider `Cc1ccc(-c2c(C)noc2C)cc1N(C[C@H]1C[C@@H]1CNc1ccc2c(c1)C(=O)N(C1CCC(=O)NC1=O)C2)c1ccc(C2(C#N)CC2)cc1` (stereo partly shown) [Compound 186], for which the IC50 in the experiment with 22RV1 cells (Homo sapiens) and with LNCaP/AR cells (setting [2]) was over 2000 nM throughout.

`Cc1ccc(-c2c(C)noc2C)cc1N(C[C@H]1C[C@@H]1CNc1ccc2c(c1)CN(C1CCC(=O)NC1=O)C2=O)c1ccc(C2(C#N)CC2)cc1` (stereo partly shown) [Compound 187]: the figures for the IC50 in the experiment on 22RV1 cells (Homo sapiens) and in the experiment on LNCaP/AR cells (setting [2]) were 501 to 2000 nM and over 2000 nM, respectively.

With `Cc1ccc(-c2c(C)noc2C)cc1N(CC(C)OC1CCN(c2cc3c(cc2F)C(=O)N(C2CCC(=O)NC2=O)C3=O)CC1)c1ccc(C2(C#N)CC2)cc1` (stereo not shown) [Compound 188], the IC50 fell in the range of 101 to 500 nM in the experiment on 22RV1 cells (Homo sapiens) and 501 to 2000 nM in the experiment on LNCaP/AR cells (setting [2]).

For `Cc1ccc(-c2c(C)noc2C)cc1N(CCC(C)CCNc1cc2c(cc1F)C(=O)N(C1CCC(=O)NC1=O)C2=O)c1ccc(C2(C#N)CC2)cc1` (stereo not shown) [Compound 189, 1-(4-((5-(3,5-dimethylisoxazol-4-yl)-2-methylphenyl)(5-((2-(2,6-dioxopiperidin-3-yl)-6-fluoro-1,3-dioxoisoindolin-5-yl)amino)-3-methylpentanyl)amino)phenyl)cyclopropane-1-carbonitrile], the results for the IC50 with 22RV1 cells (Homo sapiens) and in the experiment with LNCaP/AR cells (setting [2]) were 501 to 2000 nM and over 2000 nM, respectively.

Take `Cc1ccc(-c2c(C)noc2C)cc1N(CCC(C)CCNc1cc2c(cc1F)CN(C1CCC(=O)NC1=O)C2=O)c1ccc(C2(C#N)CC2)cc1` (stereo not shown) [Compound 190, 1-(4-((5-(3,5-dimethylisoxazol-4-yl)-2-methylphenyl)(5-((2-(2,6-dioxopiperidin-3-yl)-6-fluoro-3-oxoisoindolin-5-yl)amino)-3-methylpentanyl)amino)phenyl)cyclopropane-1-carbonitrile]: the IC50 in the experiment on 22RV1 cells (Homo sapiens) and in the experiment on LNCaP/AR cells (setting [2]) was over 2000 nM throughout.

For `Cc1ccc(-c2c(C)noc2C)cc1N(CCC(C)CCNc1cc2c(cc1F)C(=O)N(C1CCC(=O)NC1=O)C2)c1ccc(C2(C#N)CC2)cc1` (stereo not shown) [Compound 191, 1-(4-((5-(3,5-dimethylisoxazol-4-yl)-2-methylphenyl)(5-((2-(2,6-dioxopiperidin-3-yl)-6-fluoro-1-oxoisoindolin-5-yl)amino)-3-methylpentanyl)amino)phenyl)cyclopropane-1-carbonitrile], the IC50 in the experiment with 22RV1 cells (Homo sapiens) was 501 to 2000 nM; in the experiment with LNCaP/AR cells (setting [2]), over 2000 nM.

For `Cc1ccc(-c2c(C)noc2C)cc1N(CCC(C)CCNc1ccc2c(c1)C(=O)N(C1CCC(=O)NC1=O)C2=O)c1ccc(C2(C#N)CC2)cc1` (stereo not shown) [Compound 192, 1-(4-((5-(3,5-dimethylisoxazol-4-yl)-2-methylphenyl)(5-((2-(2,6-dioxopiperidin-3-yl)-1,3-dioxoisoindolin-5-yl)amino)-3-methylpentanyl)amino)phenyl)cyclopropane-1-carbonitrile], the IC50 is under 100 nM in the experiment on 22RV1 cells (Homo sapiens) and 501 to 2000 nM in the experiment with LNCaP/AR cells (setting [2]).
